Experimental data: patent US4152440A, “Novel derivatives of imidazole, and pharmaceutical compositions containing them” (Hoechst Aktiengesellschaft, priority 1975, dated 1979)

What was measured:
[1] = tested on: Oxonat rat; experiment: Combined metabolic test in the Oxonat rat (Test 2 of Table 2): uric acid in urine and serum; type: in vivo, male Wistar rats; conditions: for Separation of uric acid in the urine, 1st day: 1st day (urine collected before administration, control value); for Serum - uric acid, % of control / Serum - uric acid / Separation of uric acid in the urine, 3rd day: 3rd day
Procedure: (§1) In this test series, the uricase activity of the rats' livers is inhibited by the application of potassium oxonate (potassium salt of 2,4-dihydroxy-1,3,5-triazine-(6)-carboxylic acid) and thus a gout-like disorder of the purine metabolism is induced. The animals are tested in two different ways.
(§2) 18 hours before the start of the test, the animals were placed separately in metabolism cages. At the same time they were offered unlimited quantities of a 0.5% potassium oxonate solution to drink. On the 1st day of the test, first the urine samples collected were removed (control value) then the substances to be tested were administered in a 0.5% potassium oxonate solution by oesophageal tube into the stomach. The same operation was repeated on the 2nd day of the test. After removal of the 24 hour urine (1st sample after administration of the preparation) the test substances were administered a second time by oesophageal tube. On the 3rd day of the test, the animals were killed and bled, immediately after the urine samples from the preceding 24 hours had been collected (2nd sample after administration of the preparation). Both in the serum obtained and also in the urine samples, the concentration of uric acid was determined enzymatically, using the uricase method (Uricaquant, Boehringer Mannheim), together with a large number of metabolic parameters.
This test series differs from the diuresis test described in 1) only in the method of administration of the uricase inhibitor. The animals drink water throughout the test and are given the potassium oxonate in a special feed mixture consisting of normal standard rat food to which 5% fructose, 3% uric acid, 2% potassium oxonate and 0.1% sweetener have been added. The administration of the preparations to be tested and the analysis of the urine samples from the 1st, 2nd and 3rd days of the test and of the serum samples obtained on the 3rd day of the test were carried out as described in the diuresis test.

[2] = tested on: Oxonat rat; experiment: Diuresis test in the Oxonat rat (Test 1 of Table 2): uric acid in urine and serum; type: in vivo, male Wistar rats; conditions: 25 mg/kg oral, n=8, diuresis test (Test 1)
Procedure: The compounds may therefore be useful as therapeutic agents for various disorders of purine metabolism, particularly in treating primary and secondary gout.
as §1, §2

[3] = Acute toxicity (LD50), oral by oesophageal tube; conditions: rat, in vivo, rats, mortality within 7 days
[4] = 25 mg/kg oral, n=8, combined metabolic test (Test 2)
[5] = 25 mg/kg oral, n=8, combined metabolic test (Test 2), * p<0.05 (Duncan), control 8.64± 3.51
[6] = 50 mg/kg oral, n=8, comparison preparation, own control group (Test 2)

Compound	Separation of uric acid in the urine, 1st day [1, 4]	Separation of uric acid in the urine, 2nd day [1, 4]	Serum - uric acid, % of control [1, 4] [%]	Serum - uric acid [1, 5] [mg %]	Separation of uric acid in the urine, 3rd day [1, 4]	Separation of uric acid in the urine, 1st day ([2]; 1st day (urine collected before administration, control value))	Separation of uric acid in the urine, 2nd day ([2]; 2nd day)	Separation of uric acid in the urine, 3rd day ([2]; 3rd day)	Serum - uric acid, % of control ([2]; 3rd day) [%]	Serum - uric acid ([2]; 3rd day, * p<0.05 (Duncan), control 3.50± 1.15) [mg %]	LD50 at 168 h [3] [mg/kg]	Serum - uric acid ([1]; 50 mg/kg oral, n=8, comparison preparation (Test 2), own control 6.70± 0.89) [mg %]	Separation of uric acid in the urine, 1st day [1, 6]	Separation of uric acid in the urine, 2nd day [1, 6]	Separation of uric acid in the urine, 3rd day [1, 6]
CC(C)n1ccnc1Cc1nn[nH]n1 [Example 3, 1-Isopropyl-2-(5-tetrazolymethyl)-imidazole]	1.68± 0.51	2.25± 0.41	-19	6.97± 2.07	–	–	–	–	–	–	–	–	–	–	–
c1ccc(Cn2ccnc2Cc2nn[nH]n2)cc1 [Example 5, 1-benzyl-2-(5-tetrazolymethyl)-imidazole]	1.78± 0.92	2.76± 1.21	-30	6.05± 1.96	2.28± 1.31	–	–	–	–	–	–	–	–	–	–
Cc1ccccc1-n1ccnc1Cc1nnn[nH]1 [Example 11, 1-(o-Tolyl)-2-(5-tetrazolylmethyl)-imidazole]	1.12± 0.64	2.24± 0.57	-31	6.00± 1.73	2.33± 1.70	–	–	–	–	–	–	–	–	–	–
c1ccc(Cn2ccnc2-c2nnn[nH]2)cc1 [Example 24, 1-Benzyl-2-(5-tetrazolyl)-imidazole]	1.81± 0.61	2.04± 0.80	-30	6.07± 1.63	2.51± 1.55	2.56± 1.14	3.97± 1.44	3.47± 1.31	-31	2.41± 0.98	> 4000	–	–	–	–
Cn1ccnc1Cc1nnn[nH]1 [Example 1, 1-Methyl-2-(5-tetrazolylmethyl)-imidazole]	–	3.30± 2.12	-44	4.83± 1.69	3.32± 1.94	–	–	–	–	–	> 3150	–	–	–	–
Oc1ncnc2[nH]ncc12 [Allopurinol, 1 H-Pyrazolo[3,4-]pyrimidine-4-ol, reference compound]	–	–	–	–	–	–	–	–	–	–	–	6.21± 0.76	0.99± 0.51	2.16± 0.81	3.82± 1.59
